Results: patent US8703424B2, “Predicting human developmental toxicity of pharmaceuticals using human stem-like cells and metabolomics” (Stemina Biomarker Discovery, Inc., priority 2010, dated 2014)
Like-named read-outs stand apart in the source and are kept apart here. Values belong to the compound of their own block, whether it stands above or below them.

What was measured:
[1] = test system: WA09 human embryonic stem (hES) cells; experiment: PLS-DA prediction of teratogenicity from secretome of treated hES cells (Example 9); details: DevTox pharmaceutical
From the text: These included 11 known teratogens and 11 known non-teratogens. The current model is based on the mean fold change (treatment versus its associated intra-experimental control) of 15 metabolites common among the secretome of hES cells treated with pharmaceutical agents and unknown chemical compounds.

hESCs = experiment: Arginine / ADMA fold change ratio (integrated EICs) in dosed hESCs vs controls; details: for Arg fold change/ADMA fold change: EIC areas, controls vs. dosed
Method: All tested chemicals were purchased from Sigma-Aldrich (St. Louis, Mo.). Cells were dosed with drugs at a concentration equivalent to their published serum circulating therapeutic dosages. Dosing was performed on hESCs in 6-well plates in triplicate, i.e. three wells per plate. The plates were dosed in triplicate, so there were a total of nine dosed wells. In parallel, there were nine “control” wells, in which hESCs were cultured with mTeSR1 containing no drug, and three wells containing Matrigel with mTeSR1 medium without hESCs that served as medium controls. Lastly, three wells of dosed medium controls were prepared, containing Matrigel, mTeSR1 and drug, but no hESCs (FIG. 1). These medium controls provided baseline mass spectral data. On the first day of dosage, the determined concentration of drug was dissolved in mTeSR1, and then 2.5 mL of this solution was added to each dosed well of hESCs. Each day, for four days, the medium was removed and new dosed medium was added. On the fourth day, the medium was removed and added to acetonitrile to make a 40% acetonitrile solution, as outlined in the Sample Preparation section below.
Mass spectrometry was performed using an Agilent QTOF LC/MS system consisting of a G6520AA QTOF high resolution mass spectrometer capable of exact mass MS and MS/MS. In order to facilitate separation of small molecules with a wide range of polarity and to allow increased retention of hydrophilic species, Hydrophilic Interaction Liquid Chromatography (Alpert 1990) was employed. Each sample was run for 30 minutes with the gradient shown in Table 3 at a flow rate of 0.5 mL/min, using 0.1% formic acid in water (Solvent A) and 0.1% formic acid in acetonitrile (Solvent B). Electrospray ionization was employed using a dual ESI source, with an Agilent isocratic pump continuously delivering an internal mass reference solution into the source at approx. 0.01 mL/min. The mass range of the instrument was set to 100-1700 Da. A Phenomenex Luna HILIC column with dimensions 3×100 mm 3 μm particle size was used and maintained at 30° C. 5 μl of each sample was injected. Data acquisition was performed with Agilent MassHunter using high-resolution exact mass conditions.
Valproate is known to cause neural tube defects (DiLiberti et al. 1984) while nitric oxide synthase activity is essential for neural tube closure (Nachmany et al. 2006).

WA09 hESCs [2] = experiment: LC-MS metabolomics: abundance changes of metabolites in hESCs dosed at circulating dose; format: cell-based, human; details: for Abundance of succinic acid: drug-treated vs control
Method: (§1) These medium controls provided baseline mass spectral data.
(§2) The 2.5 mL of spent media per well from Example 1 was added to 1.67 mL acetonitrile to make a 40% acetonitrile solution. The acetonitrile acts to “quench” the spent media sample, slowing or halting many metabolic processes and aiding in precipitation of cellular proteins. Samples were either stored at −80° C. for later analysis, or for immediate analysis, 250 μL of the quenched solution was mixed with 250 μL of water, to a final concentration of 20% acetonitrile, then added to a 3 kDa molecular weight cut-off filter spin column (Microcon YM-3 Centrifugal Filter, Millipore, Billerica, Mass.). Each sample was then centrifuged in an IEC CL31R Multispeed Centrifuge (Thermo Scientific, Waltham, Mass.) at 13,000×g at 4° C. for 200 minutes. Following centrifugation, the flow-through was saved then dried for several hours in a Savant High Capacity Speedvac Plus Concentrator. The concentrated sample was then dissolved in 50 μL of 0.1% formic acid prior to LC-MS analysis.
(§3) 5 μl of each sample was injected.
(§4) Following LC-MS, chromatograms were inspected for reproducibility. LC-MS runs with total ion counts that vary by more than 25% were repeated to ensure that samples could be accurately compared. These runs were then used to create mass features that correspond to molecules detected across the different LC-MS runs. Mass features were extracted from the LC-MS data using MassHunter Qualitative Analysis software (Agilent Technologies). The following criteria were used as general guidelines, however some flexibility and optimization was needed. m/z values within the range of 75-1500, with a charge of +1 or −1, and a centroid height greater than 1000 were used to generate “mass features.” The mass peaks that pass these criteria were used to fit isotope and adduct (Na^+, K^+, and NH4^+) patterns corresponding to individual molecules, and to establish the abundance of each mass feature. The abundance is calculated by MassHunter software as the sum of the isotopic and adduct peaks that correspond to a single molecular feature. After data deconvolution, mass features showing at least two ions (e.g. (M^+H)^+ and (M^+H)^++1 or (M^+H)^+ and (M^+Na)^+) and an abundance value greater than 50000 for positive-ion mode data and 10000 in negative-ion mode data were included in the data set used for binning of the mass features.
The media represents a major factor in the experimental system, in that it contributes many peaks to mass spectra. This can be accounted for in a data dependent manner to select for mass feature bins, which are present at significant levels above the media. Mass feature bins present solely in the presence of cells (not detected in media) or with average abundance levels different than uncultured media were considered to be secreted, excreted, consumed, or identified metabolites.
The exact mass of the metabolite must be within 10 ppm of the known mass of the compound. 2) The retention time of the metabolite detected in the cell media must be within + or −30 seconds of a reference standard on which MS data had been acquired under the same conditions. The reference standards were dissolved in mTeSR media and prepared in exactly the same manner (described above) as the samples from the cells, including the addition of acetonitrile, Centricon centrifugal filtration, drying then dissolution in formic acid prior to LC-MS analysis. 3) The MS-MS fragmentation spectra of the metabolite detected in the cell media must be a reasonable match with that of the reference standard, including abundances and m/z values of the fragment ions. If published MS-MS spectra are available, the MS-MS spectra must also be a reasonable match.

WA09 hESCs [3] = experiment: Random forest prediction of teratogenicity from metabolomics of spent media of dosed hESCs; format: cell-based, human; details: blind study; model trained on TS1, 142 mass features; circulating dose
Method: WA09 hESCs, obtained from WiCell Research Institute (NIH National Stem Cell Bank, Madison, Wis.) were cultured in 6-well plates on Matrigel (BD Biosciences, San Jose, Calif.), in mTeSR1 medium (Stem Cell Technologies, Vancouver, BC) incubated at 37° C. under 5% CO2 in a Thermo Electron Form a Series II Water Jacket CO2 Incubator. hESCs were passaged every three or four days at a 1:3 or 1:6 seeding density for routine culture conditions. For dosing experiments, hESCs were passaged at a low density of 1:10 or 1:12 so that they would not require passaging during the […] dosing protocol. To passage hES cells, the StemPro® EZPassage™ disposable stem cell passaging tool (Invitrogen, Carlsbad, Calif.) was used to detach the cells from the wells. Detached cells were removed with a pipette and distributed to new Matrigel plates.
as §1, §2, §3, §4
Following feature selection by MassHunter, the data was further preprocessed by MassProfiler (Agilent) software which aligns mass features across multiple LC-MS data files. Mass features were generated for data from each drug treatment experiment (dosed and control) using the default alignment settings in MassProfiler with the requirement that a feature be present in at least 80% of the samples in one treatment. The mass feature datasets for each drug treatment experiment were further processed in a global manner using custom analysis scripts executed in the R statistical software environment. […]

[4] = blinded drugs; cited from earlier work
[5] = high dose (H = 10x circulating dose)
[6] = low dose (L = 0.1x circulating dose)

Arg/ADMA Prediction (hESCs): Ter
Structure (SMILES): O=c1[nH]cc(F)c(=O)[nH]1 [5-Fluorouracil]
% Non (PLS-DA class probability non-teratogen) [1, 5]: 0.32
% Ter (PLS-DA class probability teratogen) [1, 5]: 0.68
Confidence (difference between class probabilities) [1, 5]: 0.36
Prediction [1, 5]: Ter
% Non (PLS-DA class probability non-teratogen) [1, 6]: 0.28
% Ter (PLS-DA class probability teratogen) [1, 6]: 0.72
Confidence (difference between class probabilities) [1, 6]: 0.44
Prediction [1, 6]: Ter
Arg fold change/ADMA fold change (hESCs): 43.93
Changes in metabolites on dosing (WA09 hESCs [2]): most profound changes in many metabolites
Abundance of succinic acid (WA09 hESCs [2]): significant down regulation

Arg/ADMA Prediction (hESCs): Ter
Structure (SMILES): NC(=O)NO [Hydroxyurea]
% Non (PLS-DA class probability non-teratogen) [1, 5]: 0.32
% Ter (PLS-DA class probability teratogen) [1, 5]: 0.68
Confidence (difference between class probabilities) [1, 5]: 0.36
Prediction [1, 5]: Ter
% Non (PLS-DA class probability non-teratogen) [1, 6]: 0.64
% Ter (PLS-DA class probability teratogen) [1, 6]: 0.36
Confidence (difference between class probabilities) [1, 6]: 0.28
Prediction [1, 6]: Non
Arg fold change/ADMA fold change (hESCs): 2.52
Abundance of succinic acid (WA09 hESCs [2]): significant down regulation

The next lines start with the compound.

Structure (SMILES): Cc1ncc(C[n+]2csc(CCO)c2C)c(N)n1 [Thiamine]
Predicted teratogenicity (random forest statistical model) (WA09 hESCs [3]): Non
Actual teratogenicity [4]: Non
% Non (PLS-DA class probability non-teratogen) [1, 5]: 0.78
% Ter (PLS-DA class probability teratogen) [1, 5]: 0.22
Confidence (difference between class probabilities) [1, 5]: 0.56
Prediction [1, 5]: Non
% Non (PLS-DA class probability non-teratogen) [1, 6]: 0.82
% Ter (PLS-DA class probability teratogen) [1, 6]: 0.18
Confidence (difference between class probabilities) [1, 6]: 0.64
Prediction [1, 6]: Non
Arg fold change/ADMA fold change (hESCs): 1.00

Structure (SMILES): O=P1(N(CCCl)CCCl)NCCCO1 (stereo not drawn) [Cyclophosphamide]
Predicted teratogenicity (random forest statistical model) (WA09 hESCs [3]): Ter
% Non (PLS-DA class probability non-teratogen) [1, 5]: 0.45
% Ter (PLS-DA class probability teratogen) [1, 5]: 0.55
Confidence (difference between class probabilities) [1, 5]: 0.1
Prediction [1, 5]: Ter
% Non (PLS-DA class probability non-teratogen) [1, 6]: 0.41
% Ter (PLS-DA class probability teratogen) [1, 6]: 0.59
Confidence (difference between class probabilities) [1, 6]: 0.18
Prediction [1, 6]: Ter
Arg fold change/ADMA fold change (hESCs): 1.56
Arg/ADMA Prediction (hESCs; from fold change ratio): Ter
Abundance of succinic acid (WA09 hESCs [2]): significant down regulation

Structure (SMILES): CS(=O)(=O)OCCCCOS(C)(=O)=O [Busulfan]
% Non (PLS-DA class probability non-teratogen) [1, 5]: 0.28
% Ter (PLS-DA class probability teratogen) [1, 5]: 0.72
Confidence (difference between class probabilities) [1, 5]: 0.44
Prediction [1, 5]: Ter
% Non (PLS-DA class probability non-teratogen) [1, 6]: 0.29
% Ter (PLS-DA class probability teratogen) [1, 6]: 0.71
Confidence (difference between class probabilities) [1, 6]: 0.42
Prediction [1, 6]: Ter
Arg/ADMA Prediction (hESCs): Ter
Arg fold change/ADMA fold change (hESCs): 1.12
Concentration of GABA in the secretome of hESCs (WA09 hESCs [2]; dosed hESCs): Increased concentrations
